Measurements published in ChEMBL document CHEMBL1201862, “PubChem BioAssay data set” (2004).
The source made the active and inactive calls.

What was measured:
[1] = molecular target: Cyclin-dependent kinase 5/CDK5 activator 1 (Homo sapiens, UniProt Q00535); test: CDK5/p35 kinase inhibitors, dose response, biochemical, cherry-picked samples, set 2 (AID 504545)
[2] = molecular target: T1, Alkaline phosphatase, tissue-nonspecific isozyme (Homo sapiens, UniProt P05186)
T1 sequence (P05186 whole entry): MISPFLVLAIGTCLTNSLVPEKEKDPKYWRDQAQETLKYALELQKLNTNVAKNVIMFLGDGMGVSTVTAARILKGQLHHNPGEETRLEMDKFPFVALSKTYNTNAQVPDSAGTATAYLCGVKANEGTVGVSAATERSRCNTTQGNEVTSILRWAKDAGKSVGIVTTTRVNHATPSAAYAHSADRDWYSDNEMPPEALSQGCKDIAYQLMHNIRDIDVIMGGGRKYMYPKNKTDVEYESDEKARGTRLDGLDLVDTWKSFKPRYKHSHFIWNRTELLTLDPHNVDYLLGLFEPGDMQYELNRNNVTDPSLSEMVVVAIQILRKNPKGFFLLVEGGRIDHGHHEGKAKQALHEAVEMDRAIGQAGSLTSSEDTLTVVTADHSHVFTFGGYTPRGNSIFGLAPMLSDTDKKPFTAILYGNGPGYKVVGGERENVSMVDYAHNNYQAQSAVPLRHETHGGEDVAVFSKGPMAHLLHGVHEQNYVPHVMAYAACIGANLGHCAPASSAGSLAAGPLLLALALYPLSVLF

Bcl-2-like protein 10 = Bcl-2-like protein 10 (Homo sapiens, UniProt Q9HD36); test: displacers of TR3 peptide from Bcl-B, primary screen, selectivity assay for Bfl-1 inhibitor project, biochemical, fluorescence polarization, FITC-TR3 peptide (AID 748);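 further: fluorescence polarization from a fluorescein-labelled TR3 peptide binding purified Bcl-B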
Chain of Bcl-2-like protein 10 (Q9HD36 whole entry): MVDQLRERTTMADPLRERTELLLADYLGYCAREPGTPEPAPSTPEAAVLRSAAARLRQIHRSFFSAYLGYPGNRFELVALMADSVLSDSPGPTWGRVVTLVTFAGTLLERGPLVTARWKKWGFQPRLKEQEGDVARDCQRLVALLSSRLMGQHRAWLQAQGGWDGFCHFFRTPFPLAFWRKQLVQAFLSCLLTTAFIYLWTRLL

HeLa = test: HeLa cell cytotoxicity, dose response, cytotoxicity control, 24 h, cherry-picked samples (AID 504726); type: functional, cell-based; settings: Homo sapiens;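 further: potency for cytotoxicity as loss of luminescence signal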
[3] = molecular target: T2, RNA-binding protein pos-1 (Caenorhabditis elegans, UniProt G5EF15); test: inhibitors of POS-1/mex-3 RNA binding, dose response, biochemical, fluorescence polarization (AID 1964);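 further: purified POS-1 fused to maltose binding protein made in E. coli; potency of compounds blocking POS-1 binding to fluorescent RNA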
T2 sequence (G5EF15 whole entry): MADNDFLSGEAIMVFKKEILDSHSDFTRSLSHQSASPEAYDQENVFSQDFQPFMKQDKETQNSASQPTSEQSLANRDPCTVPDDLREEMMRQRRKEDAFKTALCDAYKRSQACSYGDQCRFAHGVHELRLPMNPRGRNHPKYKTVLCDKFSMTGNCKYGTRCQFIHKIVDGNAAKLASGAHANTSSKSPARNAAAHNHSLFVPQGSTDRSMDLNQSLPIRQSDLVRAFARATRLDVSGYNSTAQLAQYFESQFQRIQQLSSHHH

Protein Rev = Protein Rev (Human immunodeficiency virus type 1 group M subtype B (isolate HXB2)(HIV-1), UniProt P04618); test: inhibitors of Rev binding to RRE RNA, dose response, biochemical, fluorescence polarization, HIV-1 (AID 434976); design: species or system Human immunodeficiency virus 1
Chain of Protein Rev (P04618 whole entry): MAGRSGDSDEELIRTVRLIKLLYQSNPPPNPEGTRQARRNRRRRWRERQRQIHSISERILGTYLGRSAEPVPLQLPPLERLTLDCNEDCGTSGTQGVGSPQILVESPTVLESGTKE

[4] = molecular target: Female germline-specific tumor suppressor gld-1 (Caenorhabditis elegans, UniProt Q17339); test: inhibitors of GLD-1 binding to TGE RNA, dose response, biochemical, fluorescence polarization, C. elegans (AID 2802);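 further: fluorescence polarization of labeled TGE RNA bound by purified gld-1 protein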
Chain of Female germline-specific tumor suppressor gld-1 (Q17339 whole entry): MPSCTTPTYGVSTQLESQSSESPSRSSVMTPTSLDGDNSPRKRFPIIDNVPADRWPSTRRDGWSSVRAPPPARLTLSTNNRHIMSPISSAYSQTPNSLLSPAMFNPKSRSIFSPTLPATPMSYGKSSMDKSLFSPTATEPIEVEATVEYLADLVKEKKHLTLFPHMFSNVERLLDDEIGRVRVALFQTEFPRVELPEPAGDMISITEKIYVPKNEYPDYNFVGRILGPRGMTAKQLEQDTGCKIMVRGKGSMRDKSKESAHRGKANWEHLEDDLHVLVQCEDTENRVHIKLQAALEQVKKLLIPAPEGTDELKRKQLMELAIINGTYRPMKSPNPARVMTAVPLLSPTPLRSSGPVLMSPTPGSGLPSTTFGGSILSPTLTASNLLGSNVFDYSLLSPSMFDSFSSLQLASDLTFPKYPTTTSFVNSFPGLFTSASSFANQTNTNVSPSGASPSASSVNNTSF

[5] = molecular target: T3, Zinc finger protein mex-5 (Caenorhabditis elegans, UniProt Q9XUB2); test: MEX-5/TCR-2 RNA interaction inhibitors, dose response, biochemical, C. elegans, fluorescence polarization (AID 1960)
T3 sequence (Q9XUB2 whole entry): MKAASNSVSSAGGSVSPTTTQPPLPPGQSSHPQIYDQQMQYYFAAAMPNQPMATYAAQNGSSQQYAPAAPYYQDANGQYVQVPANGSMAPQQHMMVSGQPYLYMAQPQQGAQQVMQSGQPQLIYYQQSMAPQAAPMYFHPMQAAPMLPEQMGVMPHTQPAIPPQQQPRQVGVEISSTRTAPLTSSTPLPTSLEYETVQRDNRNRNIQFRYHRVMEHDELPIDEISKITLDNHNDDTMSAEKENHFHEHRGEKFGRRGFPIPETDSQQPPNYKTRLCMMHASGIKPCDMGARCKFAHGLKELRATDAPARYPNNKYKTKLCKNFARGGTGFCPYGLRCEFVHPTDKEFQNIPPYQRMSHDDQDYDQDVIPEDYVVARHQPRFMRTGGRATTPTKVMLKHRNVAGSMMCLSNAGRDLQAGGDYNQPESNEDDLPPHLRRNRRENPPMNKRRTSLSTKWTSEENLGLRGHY

Cytochrome P450 2C9 = Cytochrome P450 2C9 (Homo sapiens, UniProt P11712); settings: Potency
Chain of Cytochrome P450 2C9 (P11712 whole entry): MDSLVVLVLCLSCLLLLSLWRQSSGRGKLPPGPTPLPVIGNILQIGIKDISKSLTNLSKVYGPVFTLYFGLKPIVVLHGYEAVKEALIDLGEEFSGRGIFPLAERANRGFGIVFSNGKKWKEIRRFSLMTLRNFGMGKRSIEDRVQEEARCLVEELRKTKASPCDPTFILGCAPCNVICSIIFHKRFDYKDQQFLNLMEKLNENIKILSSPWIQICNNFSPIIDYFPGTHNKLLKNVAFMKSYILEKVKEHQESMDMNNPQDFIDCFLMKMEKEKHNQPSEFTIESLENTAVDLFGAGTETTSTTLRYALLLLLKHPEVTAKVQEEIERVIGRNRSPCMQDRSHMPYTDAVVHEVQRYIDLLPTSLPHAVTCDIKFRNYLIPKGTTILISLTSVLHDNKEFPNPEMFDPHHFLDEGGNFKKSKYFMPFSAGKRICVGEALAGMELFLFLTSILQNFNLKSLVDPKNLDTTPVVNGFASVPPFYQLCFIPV

Vero [6] = test: cells; type: functional; settings: Chlorocebus sabaeus
Vero [7] = test: cells; type: functional, cell-based; settings: Chlorocebus sabaeus
[8] = molecular target: C-C chemokine receptor type 6 (Homo sapiens, UniProt P51684); test: CCR6 receptor antagonists, dose response, cell-based, luminescent beta-arrestin readout (AID 504728); type: functional
Chain of C-C chemokine receptor type 6 (P51684 whole entry): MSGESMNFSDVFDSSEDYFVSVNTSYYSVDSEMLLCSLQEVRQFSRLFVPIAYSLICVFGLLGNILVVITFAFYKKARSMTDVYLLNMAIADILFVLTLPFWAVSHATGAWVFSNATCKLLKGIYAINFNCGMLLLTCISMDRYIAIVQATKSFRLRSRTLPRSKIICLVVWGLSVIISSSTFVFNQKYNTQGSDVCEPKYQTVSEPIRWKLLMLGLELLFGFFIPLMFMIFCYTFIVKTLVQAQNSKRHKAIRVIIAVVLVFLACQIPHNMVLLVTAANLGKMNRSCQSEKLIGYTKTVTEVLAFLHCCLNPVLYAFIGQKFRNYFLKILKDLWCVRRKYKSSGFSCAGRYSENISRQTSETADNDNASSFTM

P388/ADR = test: cells; type: functional; settings: Mus musculus
SN12K1 = test: cells; type: functional; settings: Homo sapiens
Beta-galactosidase = Beta-galactosidase (Escherichia coli, UniProt Q8VNN2); test: beta-galactosidase enzyme inhibitors and activators, dose response, artefact control for CCR6 antagonist project, biochemical, E. coli enzyme, set 3 (AID 504712); type: functional
Chain of Beta-galactosidase (Q8VNN2 whole entry): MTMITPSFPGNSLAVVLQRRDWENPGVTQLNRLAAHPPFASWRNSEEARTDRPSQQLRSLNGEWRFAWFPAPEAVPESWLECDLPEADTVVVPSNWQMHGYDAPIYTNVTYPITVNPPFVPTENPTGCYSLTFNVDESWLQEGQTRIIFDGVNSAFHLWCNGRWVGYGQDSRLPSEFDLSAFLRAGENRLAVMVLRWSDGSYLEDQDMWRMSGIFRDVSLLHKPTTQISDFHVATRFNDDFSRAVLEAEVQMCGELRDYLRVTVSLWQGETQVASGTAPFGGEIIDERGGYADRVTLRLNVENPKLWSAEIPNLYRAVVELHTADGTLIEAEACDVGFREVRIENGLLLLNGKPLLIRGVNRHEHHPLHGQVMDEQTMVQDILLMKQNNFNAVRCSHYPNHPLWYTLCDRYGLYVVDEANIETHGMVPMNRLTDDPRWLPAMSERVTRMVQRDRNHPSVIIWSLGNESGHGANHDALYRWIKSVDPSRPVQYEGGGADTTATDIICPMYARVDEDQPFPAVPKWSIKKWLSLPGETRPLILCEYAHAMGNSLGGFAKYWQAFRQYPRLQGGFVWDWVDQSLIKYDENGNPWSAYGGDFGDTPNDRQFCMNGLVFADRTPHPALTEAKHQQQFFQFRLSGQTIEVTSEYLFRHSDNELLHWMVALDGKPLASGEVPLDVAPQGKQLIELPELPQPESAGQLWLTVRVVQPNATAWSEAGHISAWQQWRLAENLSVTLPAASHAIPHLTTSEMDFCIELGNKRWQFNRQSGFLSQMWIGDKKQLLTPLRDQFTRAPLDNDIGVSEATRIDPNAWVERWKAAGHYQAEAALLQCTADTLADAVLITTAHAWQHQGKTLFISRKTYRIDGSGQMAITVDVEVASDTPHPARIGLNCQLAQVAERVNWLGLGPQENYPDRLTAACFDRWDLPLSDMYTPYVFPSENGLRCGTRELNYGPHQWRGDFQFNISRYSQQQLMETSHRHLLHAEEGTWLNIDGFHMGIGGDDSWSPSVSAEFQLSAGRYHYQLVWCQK

P388 = test: cells; type: functional; settings: Mus musculus
[9] = molecular target: Signal transducer and activator of transcription 3 (Homo sapiens, UniProt P40763); test: STAT3 activators, late-stage profile, late-stage follow-up, cell-based, STAT1 reporter, BCL3 qPCR, cytotoxicity, panel member STAT3 Activation (AID 2049)
Chain of Signal transducer and activator of transcription 3 (P40763 whole entry): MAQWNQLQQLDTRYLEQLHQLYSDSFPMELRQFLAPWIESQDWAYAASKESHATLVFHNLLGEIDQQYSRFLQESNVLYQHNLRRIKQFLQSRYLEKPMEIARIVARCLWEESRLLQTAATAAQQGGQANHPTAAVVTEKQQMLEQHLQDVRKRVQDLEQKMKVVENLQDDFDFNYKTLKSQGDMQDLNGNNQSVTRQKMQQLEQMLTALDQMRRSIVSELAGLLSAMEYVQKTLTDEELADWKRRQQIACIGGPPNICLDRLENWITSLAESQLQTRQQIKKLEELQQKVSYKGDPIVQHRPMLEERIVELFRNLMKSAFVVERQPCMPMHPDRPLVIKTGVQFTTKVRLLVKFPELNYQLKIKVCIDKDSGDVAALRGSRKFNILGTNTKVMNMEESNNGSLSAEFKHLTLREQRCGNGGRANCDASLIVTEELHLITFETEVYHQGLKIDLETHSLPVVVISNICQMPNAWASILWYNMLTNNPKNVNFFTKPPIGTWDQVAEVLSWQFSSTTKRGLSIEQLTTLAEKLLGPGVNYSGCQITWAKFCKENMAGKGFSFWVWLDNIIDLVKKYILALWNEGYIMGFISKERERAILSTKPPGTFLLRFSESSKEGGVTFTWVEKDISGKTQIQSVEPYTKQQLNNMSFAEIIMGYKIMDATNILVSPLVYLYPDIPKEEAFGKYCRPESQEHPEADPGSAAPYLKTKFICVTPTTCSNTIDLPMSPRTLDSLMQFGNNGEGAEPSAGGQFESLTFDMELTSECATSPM

[10] = STAT3 activators, late-stage profile, late-stage follow-up, cell-based, STAT1 reporter, BCL3 qPCR, cytotoxicity, panel member Cytotoxicity (AID 2049); type: toxicity

Chain of Cyclin-dependent kinase 5/CDK5 activator 1 (Q00535 whole entry): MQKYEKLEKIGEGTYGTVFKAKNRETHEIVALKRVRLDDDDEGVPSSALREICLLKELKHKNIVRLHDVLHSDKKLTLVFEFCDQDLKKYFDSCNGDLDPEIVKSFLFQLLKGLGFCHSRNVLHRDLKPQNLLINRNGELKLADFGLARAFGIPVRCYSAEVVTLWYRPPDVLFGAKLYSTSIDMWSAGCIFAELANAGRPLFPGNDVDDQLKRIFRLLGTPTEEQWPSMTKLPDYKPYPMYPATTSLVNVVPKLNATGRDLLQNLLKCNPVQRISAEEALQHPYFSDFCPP
Chain of Cyclin-dependent kinase 5/CDK5 activator 1 (Q15078 whole entry, further chain): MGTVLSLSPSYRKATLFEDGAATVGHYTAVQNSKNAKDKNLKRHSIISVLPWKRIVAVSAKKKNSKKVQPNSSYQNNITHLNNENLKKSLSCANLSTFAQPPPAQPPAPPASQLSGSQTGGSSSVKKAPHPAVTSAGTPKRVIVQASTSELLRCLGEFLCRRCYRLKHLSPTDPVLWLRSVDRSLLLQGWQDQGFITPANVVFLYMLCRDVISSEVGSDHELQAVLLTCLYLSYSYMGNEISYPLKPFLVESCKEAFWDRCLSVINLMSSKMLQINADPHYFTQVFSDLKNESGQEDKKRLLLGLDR

For `Fc1ccccc1/C=N/Nc1[nH]cnc2ncnc1-2`, the AC50 [1] was 17.4 µM (active).
In the case of `CCN(CC)c1ccc(NC(=O)Cn2c(C(C)NC(=O)c3ccc(C)cc3)nc3ccccc32)cc1` (stereo not drawn), the EC50 [2] is reported as > 100 µM (not active).
With `COc1cc(CC(=O)OCC(=O)Nc2ncc(Cl)cc2Cl)cc(OC)c1OC` the IC50 (Bcl-2-like protein 10) was 68.3 µM (inactive).
In the case of `Cn1c(N)c(C(=O)COC(=O)c2ccc(Cl)c(S(=O)(=O)N3CCCC3)c2)c(=O)n(C)c1=O`, the AC50 (HeLa) is reported as 68.1 µM (active).
For `COC(=O)[C@@]1(C#N)[C@@H]2C=CC(C(C)=O)=CN2[C@@H](C(N)=O)[C@@H]1c1ccc(F)cc1`, the EC50 [3] was 4.6 µM (active), the IC50 (Protein Rev) was 18.3 µM (not active) and the IC50 [4] was 15.1 µM (inactive). For the same compound, the EC50 [5] was 11.4 µM (active).
For `COCC#Cc1ccc(C2C(C)CCC3C(=O)N4C(CCC(C)C4c4ccc(C#CCOC)cc4)C(=O)N32)cc1` (stereo not drawn), the AC50 (Cytochrome P450 2C9) was 7.94 µM (inconclusive).
For `CCCC/C=C1/CCC(CN(C)C)C1=O` (stereo not drawn), the CC50 (Vero [6]) was > 25 µM (active), the IC50 (Vero [7]) was 21.8 µM (active) and the IC50 [8] was 27.1 µM (inactive). The GI50 (P388/ADR) was 0.155 µM (active), the GI50 (SN12K1) was 0.776 µM (active) and the IC50 (Beta-galactosidase) was > 66.6 µM (inactive). For the same compound, the GI50 (P388) was 0.164 µM (active).
In the case of `COc1cc(NC(=O)c2cc(C3CC3)on2)c(OC)cc1Cl`, the EC50 [9] is reported as 0.00219 µM (active) and the CC50 [10] is reported as > 55.7 µM (inactive).
